Where a name gives a salt, the structure may show the parent alone. Calls of active or inactive are those of the source.
Tests used:
[1] = target: Glutathione-S-transferase (Schistosoma japonicum, UniProt Q26513); test: GST-antibody interaction or FRET quenching – biochemical, TR-FRET, artefact control for Vif-APOBEC3G degradation inhibitor project, dose response (AID 1117362); type: functional
[2] = target: Protein Tat (Human immunodeficiency virus type 1 group M subtype B (isolate HXB2)(HIV-1), UniProt P04608); type: functional;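 further: tat binding to TAR RNA read out by fluorescence polarization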
Chain of Protein Tat (P04608 whole entry): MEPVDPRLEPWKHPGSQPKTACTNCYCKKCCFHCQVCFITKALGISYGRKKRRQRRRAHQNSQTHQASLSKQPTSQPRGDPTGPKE

[3] = target: Luciferin 4-monooxygenase (Photinus pyralis, UniProt P08659); test: inhibition of purified Photinus pyralis luciferase – biochemical, luminescence, dose response (AID 1891)
Chain of Luciferin 4-monooxygenase (P08659 whole entry): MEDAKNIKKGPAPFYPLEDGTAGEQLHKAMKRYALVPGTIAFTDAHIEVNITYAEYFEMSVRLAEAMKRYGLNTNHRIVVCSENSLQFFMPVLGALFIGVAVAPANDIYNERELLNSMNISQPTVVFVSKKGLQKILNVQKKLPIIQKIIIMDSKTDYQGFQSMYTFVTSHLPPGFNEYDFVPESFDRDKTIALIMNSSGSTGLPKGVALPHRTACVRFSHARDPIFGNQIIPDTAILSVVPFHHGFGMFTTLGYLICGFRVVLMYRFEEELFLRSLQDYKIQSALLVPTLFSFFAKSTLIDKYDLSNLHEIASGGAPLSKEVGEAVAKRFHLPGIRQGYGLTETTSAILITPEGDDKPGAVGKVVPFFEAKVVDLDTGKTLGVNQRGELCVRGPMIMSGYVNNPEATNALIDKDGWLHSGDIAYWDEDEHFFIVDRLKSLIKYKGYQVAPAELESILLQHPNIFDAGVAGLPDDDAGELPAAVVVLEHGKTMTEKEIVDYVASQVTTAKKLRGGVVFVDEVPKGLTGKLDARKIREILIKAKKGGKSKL

[4] = Luminescence Cell-Based Dose Confirmation HTS to Identify Inhibitors of Platelet Dense Granule Release. [Related pubchem assays: 1663 (Primary HTS), 1678 (Summary of Project)]; type: functional
[5] = Dd2 parasite growth inhibition in erythrocytes – SYBR Green, dry powder samples, set 4, dose response (AID 1159572); type: functional, cell-based
[6] = Dd2 parasite growth inhibition in erythrocytes – SYBR Green, dry powder samples, set 9, dose response (AID 1159568); type: functional, cell-based
[7] = Reduced DLD-1 viability, concentration-response, CellTiter-Glo luminescence (AID 1117352); type: functional
[8] = SNU-C1 cell viability reduction, dose response, CellTiter-Glo luminescence (AID 1117323); type: functional, cell-based
[9] = cytotoxicity toward HT-29 cells – cell-based, CellTiter-Glo luminescence, IC50, dose response (AID 1117330); type: functional
[10] = HCT116 cell viability decrease, GSK3B pretreatment – CellTiter-Glo, IC50, dose response (AID 1117339); type: functional; details: HCT-116
[11] = RKO cell viability reduction, dose response, CellTiter-Glo luminescence (AID 1117322); type: functional
[12] = CellTiter-Glo luminescence survival assay, SW480 colon tumor line, concentration-response curve, half-maximal inhibitory concentration (AID 1117338); type: functional
[13] = cytotoxicity toward Colo320 cells – cell-based, CellTiter-Glo luminescence, IC50, dose response (AID 1117334); type: functional; details: COLO 320
[14] = cytotoxicity toward HCT116 cells – cell-based, CellTiter-Glo luminescence, IC50, dose response (AID 1117332); type: functional; details: HCT-116
[15] = viability loss in HEK293T cells – cell-based, ATP luminescence, dry powder, set 3, cytotoxicity control, dose response (AID 743131); type: functional; details: HEK293
[16] = cells; details: HEK293
[17] = toxicity to A549 lung cells – cell-based, plate reader, dry powder, set 6, cytotoxicity control, dose response (AID 743312); type: functional
[18] = toxicity to HepG2 liver cells – cell-based, plate reader, dry powder, set 6, cytotoxicity control, dose response (AID 743311); type: functional
[19] = lung carcinoma cell viability loss – CellTiter-Glo luminescence, dry powder, set 17, dose response (AID 1117284); type: functional, cell-based; details: A549
[20] = target: Paired box protein Pax-8 (Homo sapiens, UniProt Q06710); test: PAX8 transcriptional activity inhibition in RMG-I – RMG-I cells, luciferase, cherry-pick, dose response (AID 687027); type: functional, cell-based;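 further: luciferase reporter driven by Pax8 target thyroperoxidase promoter measured by SteadyGlo luminescence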
Chain of Paired box protein Pax-8 (Q06710 whole entry): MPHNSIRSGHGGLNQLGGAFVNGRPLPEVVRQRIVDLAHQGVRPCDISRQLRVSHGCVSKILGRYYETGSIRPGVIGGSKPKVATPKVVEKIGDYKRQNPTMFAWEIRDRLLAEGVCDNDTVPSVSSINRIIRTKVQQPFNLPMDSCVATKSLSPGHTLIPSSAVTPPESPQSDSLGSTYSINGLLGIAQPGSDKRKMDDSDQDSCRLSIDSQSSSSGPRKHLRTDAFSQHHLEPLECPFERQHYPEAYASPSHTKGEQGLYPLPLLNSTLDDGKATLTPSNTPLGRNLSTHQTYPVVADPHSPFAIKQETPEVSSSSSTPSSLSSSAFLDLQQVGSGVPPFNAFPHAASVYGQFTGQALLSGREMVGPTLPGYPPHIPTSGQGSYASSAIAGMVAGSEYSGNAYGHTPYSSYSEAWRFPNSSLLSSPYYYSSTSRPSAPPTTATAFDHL

[21] = OVCAR8 cell viability loss – plate reader, dry powder samples, PAX8 project, dose response (AID 743197); type: functional, cell-based; details: OVCAR-8
[22] = general mammalian cell viability loss – activator set, cherry-pick, cytotoxicity control for miR-122 modulator project, dose response (AID 720690); type: functional, cell-based;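 further: HEK293T human cells scored for general mammalian cytotoxicity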
[23] = general cell-killing toxicity readout – plate reader, dry powder samples, cytotoxicity control for PAX8 inhibitor project, dose response (AID 743021); type: functional, cell-based
[24] = viability loss in A549 lung cells – cell-based, 24 h, CellTiter-Glo luminescence, cherry-picks, cytotoxicity control, dose response (AID 1053115); type: functional; details: A549, 24 h
[25] = general mammalian cell viability loss – inhibitor set, cherry-pick, set 2, cytotoxicity control for miR-122 modulator project, dose response (AID 720697); type: functional, cell-based
[26] = MITF Measured in Cell-Based System Using Plate Reader - 2084-01_Inhibitor_Dose_DryPowder_Activity_Set6.; type: functional
[27] = viability loss in MITF-independent A375 cells – cell-based, CellTiter-Glo luminescence, dry powder, set 2, counter-screen for MITF inhibitor project, dose response (AID 624489); type: functional; details: A-375;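 further: actives are compounds lowering A375 viability meaning general cytotoxicity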
[28] = viability loss in MITF-independent A375 cells – cell-based, CellTiter-Glo luminescence, dry powder, set 7, counter-screen for MITF inhibitor project, dose response (AID 624490); type: functional; details: A-375
[29] = viability loss in MITF-independent A375 cells – cell-based, CellTiter-Glo luminescence, dry powder, set 6, counter-screen for MITF inhibitor project, dose response (AID 624488); type: functional; details: A-375
[30] = cytotoxicity in melanoma parental cells – cell-based, CellTiter-Glo, dry powder, set 6, MITF inhibitor project, dose response (AID 624429); type: functional; details: SK-MEL-5
[31] = MITF Orthogonal Assay: MALME3 CTG Assay Measured in Cell-Based System Using Plate Reader - 2084-04_Inhibitor_Dose_DryPowder_Activity_Set6.; type: functional; details: MALME-3
[32] = growth inhibition of MALME3 cells – cell-based, CellTiter-Glo luminescence, dry powder, set 5, orthogonal assay for MITF inhibitor project, dose response (AID 651584); type: functional; details: MALME-3
[33] = inhibitors of TRPM1-promoter reporter in SK-MEL-5 – cell-based, luciferase, dry powder, set 9, MITF inhibitor project, dose response (AID 651588); type: functional
[34] = cytotoxicity in MITF-independent A375 cells – cell-based, CellTiter-Glo luminescence, dry powder, set 9, counter-screen for MITF modulator project, dose response (AID 651591); type: functional; details: A-375
[35] = MITF Measured in Cell-Based System Using Plate Reader - 2084-01_Inhibitor_Dose_DryPowder_Activity_Set7.; type: functional
[36] = MITF Orthogonal Assay: SK-MEL-5 CTG Assay Measured in Cell-Based System Using Plate Reader - 2084-02_Inhibitor_Dose_DryPowder_Activity_Set5.; type: functional
[37] = cytotoxicity in MITF-independent A375 cells – cell-based, CellTiter-Glo luminescence, dry powder, set 4, counter-screen for MITF inhibitor project, dose response (AID 624364); type: functional; details: A-375;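 further: A375 melanoma cells are MITF independent so this is a counter screen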
[38] = growth inhibition of SK-MEL-5 melanoma cells – cell-based, CellTiter-Glo luminescence, dry powder, set 8, orthogonal assay for MITF inhibitor project, dose response (AID 651586); type: functional

Chain of Glutathione-S-transferase (Q26513 whole entry): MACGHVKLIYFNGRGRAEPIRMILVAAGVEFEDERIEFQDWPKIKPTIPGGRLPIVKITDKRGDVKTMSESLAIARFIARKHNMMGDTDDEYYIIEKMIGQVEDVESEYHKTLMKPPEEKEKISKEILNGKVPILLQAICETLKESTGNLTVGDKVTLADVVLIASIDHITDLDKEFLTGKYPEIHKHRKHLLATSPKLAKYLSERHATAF

O=C(NC(=S)N1CCCc2ccccc21)c1ccccc1
active: IC50 [1] 90.8 µM | IC50 [2] > 100 µM
> 112 µM (not active): EC50 [3] | EC50 [4]

CCC(=O)N1CC2(CCN(C(=O)Nc3ccccc3F)CC2)c2c([nH]c3cc(OC)ccc23)[C@@H]1CO
active: AC50 [5] 0.294 µM | AC50 [6] 0.561 µM

CNS(=O)(=O)CCc1ccc2[nH]cc(C3CCN(C)CC3)c2c1 [NARATRIPTAN HYDROCHLORIDE]
inactive: IC50 [7] > 20 µM | IC50 [8] > 20 µM | IC50 [9] > 20 µM | IC50 [10] 12.1 µM | IC50 [11] > 20 µM | IC50 [12] > 20 µM | IC50 [13] > 20 µM | IC50 [14] > 20 µM

Cc1ccccc1OCCn1c(S)nc2ccccc21
active: AC50 [15] 0.344 µM

Cc1cc2ncn(CCOc3ccccc3C)c2cc1C
active: AC50 [16] 47.4 µM | AC50 [17] 11.4 µM | AC50 [18] 36.5 µM

C[C@H](O)C#Cc1ccc2c(c1)O[C@@H](CN(C)Cc1ccc(-c3ccccc3)cc1)[C@@H](C)CN([C@H](C)CO)S2(=O)=O
inactive: AC50 [19] > 52 µM | AC50 [21] > 70 µM
active: AC50 [20] 4.57 µM | AC50 [22] 22.8 µM | AC50 [23] 46.3 µM | AC50 [24] 48.6 µM | AC50 [25] 21.6 µM

CN1CCN(C2=C(NS(=O)(=O)c3ccc(Br)s3)C(=O)c3ccccc3C2=O)CC1
inactive: AC50 [28] > 70 µM | AC50 [34] > 70 µM
active: AC50 [26] 1.94 µM | AC50 [27] 47.4 µM | AC50 [29] 26.3 µM | AC50 [30] 64.7 µM | AC50 [31] 12 µM | AC50 [32] 12 µM | AC50 [33] 8.02 µM | AC50 [35] 2.26 µM | AC50 [36] 11.2 µM | AC50 [37] 65 µM | AC50 [38] 36.8 µM

Reference: ChEMBL document CHEMBL1201862, “PubChem BioAssay data set” (2004)
